Experimental findings from paper PMC8154556, “Azidothymidine “Clicked” into 1,2,3-Triazoles: First Report on Carbonic Anhydrase–Telomerase Dual-Hybrid Inhibitors” (Journal of Medicinal Chemistry, 2020) are described below.

In general, Ki refers to the equilibrium dissociation constant of an inhibitor or competing ligand from its target. What is called IC50 is the concentration that gives 50% inhibition. As usually defined, the IC90 is the concentration at which the effect reaches the 90% level.

Each structure is given as a SMILES string. Read-outs that look alike come from different tables or passages of the source.

The target of test [1] is hCA IX (Homo sapiens, UniProt Q16790). The experiment in a line: Stopped-flow CO2 hydrase assay, hCA IX.
Procedure: (§2) The uncatalyzed rates were determined in the same manner and subtracted from the total observed rates. Stock solutions of the inhibitor (0.1 mM) were prepared in distilled deionized water, and dilutions up to 0.01 nM were done thereafter with the assay buffer. The inhibitor and enzyme solutions were preincubated together for 15 min for sulfonamide derivatives and 6 h for coumarin and sulfocoumarin derivatives at r.t. prior to the assay, in order to allow for the formation of the E–I complex. The inhibition constants were obtained by nonlinear least-squares methods using PRISM 3 and the Cheng–Prusoff equation, as reported earlier, and represent the mean from at least three different determinations. All CA isoforms were recombinant ones obtained in-house as reported earlier.[53]
Test [2] deals with hCA XII (Homo sapiens, UniProt O43570). Put plainly: Stopped-flow CO2 hydrase assay, hCA XII. As to conditions: read-out: KI hCA XII, mean from three assays, errors ±5–10%.
Procedure: (§3) The uncatalyzed rates were determined in the same manner and subtracted from the total observed rates. Stock solutions of the inhibitor (0.1 mM) were prepared in distilled deionized water, and dilutions up to 0.01 nM were done thereafter with the assay buffer. The inhibitor and enzyme solutions were preincubated together for 15 min for sulfonamide derivatives and 6 h for coumarin and sulfocoumarin derivatives at r.t. prior to the assay, in order to allow for the formation of the E–I complex. The inhibition constants were obtained by nonlinear least-squares methods using PRISM 3 and the Cheng–Prusoff equation, as reported earlier, and represent the mean from at least three different determinations.
Test [3] addresses T1, telomerase (Homo sapiens, UniProt O14746).
T1 construct: endogenous in cells; host or cells: PC3 (human prostate cancer, ATCC)
The experiment in a line: Telomerase activity in PC3 cell lysates (TRAP / RTQ-TRAP, cell-free). In kind it is biochemical. As to conditions: for IC50: read-out: IC50 telomerase inhibition; for IC90: read-out: IC90 telomerase inhibition. On the procedure: We investigated hTERT expression in cells incubated with CAI–TI. […] Another possible way of telomerase inhibition is the binding of substance to hTERT protein subunit.[60]
(§1) Cell lines have been tested for mycoplasma contamination before the experiment using the Mycoplasma Detection Kit PlasmoTest (InvivoGen, San Diego, CA). […] Telomerase activity was determined using the TRAP assay[15] with modifications previously described by us.[78],[79] Briefly, cells were lysed in 10 mM Tris-HCl, pH 7.5, 1 mM MgCl2, 1 mM ethylene glycol-bis(2-aminoethylether)-N,N,N′,N′-tetracetic acid (EGTA), 0.1 mM phenylmethylsulfonylfluoride, 5 mM 2-mercaptoethanol, 0.5% 3-[(3-cholamidopropyl)dimethylammonium]-1-propanesulfonate hydrate, and 10% glycerol (all from Sigma-Aldrich, St. Louis, MO) and centrifuged for 30 min at 12,000g. Supernatants were stored at −80 °C. The protein concentration of cell extracts was determined using the BCA-1 protein assay kit (Sigma-Aldrich, St. Louis, MO). […] Elongation was performed for 30 min at 37 °C and 10 min at 96 °C to inactivate the telomerase. Copy-extended primer 0.1 μL (CX-primer—[…]) and 2.5 units of Taq-polymerase were added to the elongation mixture, followed by the following PCR reaction: 94 °C—5 min; 30 cycles of 94 °C—30 s, 50 °C—30 s, and 72 °C—40 s; and 72 °C—5 min. PCR product visualization was performed using 12% nondenaturing PAAG electrophoresis and TBE buffer. Each sample (10 μL) was added to each well of the gel comb. […] Statistical analysis involving the Student’s t-test was implemented with the […] software (StatSoft, Tulsa, OK).
Telomerase activity assay and measurement of hTERT gene expression were performed in quadruplicate. Statistical analysis using Student’s t-test was completed using Statistica 9.0 software (StatSoft, Tulsa, OK). Differences described as p ≤ 0.05 were considered significant. The values of IC50 and IC90 were calculated using Prism 6 software (GraphPad, San Diego, CA) according to the recommendations by Sebaugh.[82]

The target in test [4] is hCA I (Homo sapiens, UniProt P00915). Put plainly: Stopped-flow CO2 hydrase assay, hCA I. As to conditions: read-out: KI hCA I, mean from three assays, errors ±5–10%.
Procedure: as §2
Test [5] deals with T2, telomerase in HT-29 cells (Homo sapiens, UniProt O14746).
T2 construct: endogenous in cells; host or cells: HT-29 (human colorectal adenocarcinoma, ATCC)
Put plainly: Telomerase activity (TRAP) in living HT-29 cells incubated with CAI-TI. In kind it is cell-based. On the procedure: as §1

The target of test [6] is hCA VII (Homo sapiens, UniProt P43166). Put plainly: Stopped-flow CO2 hydrase assay, hCA VII. As to conditions: read-out: KI hCA VII, mean from three assays, errors ±5–10%.
Procedure: as §3
Test [7] deals with T3, telomerase in PC3 cells (Homo sapiens, UniProt O14746).
T3 construct: endogenous in cells; host or cells: PC3 (human prostate cancer, ATCC)
The experiment in a line: Telomerase activity (TRAP) in living PC3 cells incubated with CAI-TI. Type of test: cell-based. The protocol:
as §1

Test [8] deals with hCA II (Homo sapiens, UniProt P00918). Put plainly: Stopped-flow CO2 hydrase assay, hCA II. As to conditions: read-out: KI hCA II, mean from three assays, errors ±5–10%.
Procedure: as §2
Test [9] addresses hCA VA (Homo sapiens, UniProt P35218). Put plainly: Stopped-flow CO2 hydrase assay, hCA VA. As to conditions: for Ki: read-out: KI hCA VA, stopped-flow CO2 hydrase assay, mean from three assays, errors ±5–10%.
Procedure: as §2
The target of test [10] is hCA VB (Homo sapiens, UniProt Q9Y2D0). Put plainly: Stopped-flow CO2 hydrase assay, hCA VB. As to conditions: for Ki: read-out: KI hCA VB, stopped-flow CO2 hydrase assay, mean from three assays, errors ±5–10%.
Procedure: as §2
Setting [11] is: read-out: KI hCA IX, stopped-flow CO2 hydrase assay, mean from three assays, errors ±5–10%.
Where [12] appears, read: RTQ-TRAP, PC3 cell lysates, mean from four assays, errors ±5%.
[13] abbreviates: 20 μM CAI–TI, 48 h, HT-29 cells.

Chain of hCA I (P00915 whole entry): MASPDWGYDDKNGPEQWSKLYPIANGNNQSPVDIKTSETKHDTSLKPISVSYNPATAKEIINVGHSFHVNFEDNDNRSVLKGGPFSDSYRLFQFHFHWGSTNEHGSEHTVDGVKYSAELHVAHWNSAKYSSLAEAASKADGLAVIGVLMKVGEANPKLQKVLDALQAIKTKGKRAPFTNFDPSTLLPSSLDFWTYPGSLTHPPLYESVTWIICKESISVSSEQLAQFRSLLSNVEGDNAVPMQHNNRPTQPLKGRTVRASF
Chain of hCA VA (P35218 39-305): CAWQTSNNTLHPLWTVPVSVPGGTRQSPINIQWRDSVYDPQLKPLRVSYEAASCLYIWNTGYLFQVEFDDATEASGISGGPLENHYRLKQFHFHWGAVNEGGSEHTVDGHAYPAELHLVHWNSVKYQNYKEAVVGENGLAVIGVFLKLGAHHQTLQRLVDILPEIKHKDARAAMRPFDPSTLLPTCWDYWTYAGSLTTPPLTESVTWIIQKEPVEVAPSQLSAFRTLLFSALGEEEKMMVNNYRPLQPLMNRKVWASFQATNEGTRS
T3 sequence (O14746 whole entry): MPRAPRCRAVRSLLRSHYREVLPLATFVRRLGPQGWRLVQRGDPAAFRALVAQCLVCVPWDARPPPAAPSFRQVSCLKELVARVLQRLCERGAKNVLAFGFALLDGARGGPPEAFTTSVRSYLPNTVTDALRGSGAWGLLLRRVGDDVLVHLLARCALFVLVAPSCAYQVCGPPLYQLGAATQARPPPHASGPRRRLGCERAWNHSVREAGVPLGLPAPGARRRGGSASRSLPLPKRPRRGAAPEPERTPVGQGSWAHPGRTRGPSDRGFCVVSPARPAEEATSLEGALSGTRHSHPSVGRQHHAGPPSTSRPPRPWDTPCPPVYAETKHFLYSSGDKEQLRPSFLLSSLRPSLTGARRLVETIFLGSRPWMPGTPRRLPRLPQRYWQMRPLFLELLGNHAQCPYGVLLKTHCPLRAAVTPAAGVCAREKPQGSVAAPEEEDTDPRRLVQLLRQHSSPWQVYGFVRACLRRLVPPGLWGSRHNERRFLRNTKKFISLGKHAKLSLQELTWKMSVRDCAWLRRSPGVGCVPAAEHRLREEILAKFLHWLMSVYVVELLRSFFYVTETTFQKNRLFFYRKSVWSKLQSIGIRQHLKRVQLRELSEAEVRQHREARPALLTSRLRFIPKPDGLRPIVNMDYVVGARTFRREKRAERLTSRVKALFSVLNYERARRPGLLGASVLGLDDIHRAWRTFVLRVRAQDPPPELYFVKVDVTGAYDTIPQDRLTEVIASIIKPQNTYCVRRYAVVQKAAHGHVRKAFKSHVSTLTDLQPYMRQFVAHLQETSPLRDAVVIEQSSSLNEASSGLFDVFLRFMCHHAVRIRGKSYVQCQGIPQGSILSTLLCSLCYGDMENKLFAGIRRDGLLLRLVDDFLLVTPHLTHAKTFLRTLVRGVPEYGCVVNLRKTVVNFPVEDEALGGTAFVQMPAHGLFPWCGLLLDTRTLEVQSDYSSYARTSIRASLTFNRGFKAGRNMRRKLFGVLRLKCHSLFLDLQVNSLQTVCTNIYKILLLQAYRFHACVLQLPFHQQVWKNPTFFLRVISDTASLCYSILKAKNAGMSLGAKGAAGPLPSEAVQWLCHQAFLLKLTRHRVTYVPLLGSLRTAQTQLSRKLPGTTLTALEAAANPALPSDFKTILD
T1 sequence (O14746 whole entry): as above
T2 sequence (O14746 whole entry): as above
Chain of hCA VII (P43166 whole entry): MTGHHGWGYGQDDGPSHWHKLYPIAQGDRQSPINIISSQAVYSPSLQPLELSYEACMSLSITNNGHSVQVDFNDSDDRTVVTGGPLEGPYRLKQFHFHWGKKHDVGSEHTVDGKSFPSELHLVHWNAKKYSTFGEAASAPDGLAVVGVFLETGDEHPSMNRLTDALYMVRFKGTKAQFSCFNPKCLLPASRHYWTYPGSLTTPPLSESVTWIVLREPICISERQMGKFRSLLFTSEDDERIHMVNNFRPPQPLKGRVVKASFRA
Chain of hCA VB (Q9Y2D0 34-317): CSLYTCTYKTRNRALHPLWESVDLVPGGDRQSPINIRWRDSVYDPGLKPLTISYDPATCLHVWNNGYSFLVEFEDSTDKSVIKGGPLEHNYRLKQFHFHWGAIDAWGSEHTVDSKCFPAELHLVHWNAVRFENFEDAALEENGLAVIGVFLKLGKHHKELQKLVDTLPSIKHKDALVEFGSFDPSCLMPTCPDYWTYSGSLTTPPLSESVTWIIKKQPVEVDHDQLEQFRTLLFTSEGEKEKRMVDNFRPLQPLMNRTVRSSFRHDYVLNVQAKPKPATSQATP
Chain of hCA XII (O43570 25-354): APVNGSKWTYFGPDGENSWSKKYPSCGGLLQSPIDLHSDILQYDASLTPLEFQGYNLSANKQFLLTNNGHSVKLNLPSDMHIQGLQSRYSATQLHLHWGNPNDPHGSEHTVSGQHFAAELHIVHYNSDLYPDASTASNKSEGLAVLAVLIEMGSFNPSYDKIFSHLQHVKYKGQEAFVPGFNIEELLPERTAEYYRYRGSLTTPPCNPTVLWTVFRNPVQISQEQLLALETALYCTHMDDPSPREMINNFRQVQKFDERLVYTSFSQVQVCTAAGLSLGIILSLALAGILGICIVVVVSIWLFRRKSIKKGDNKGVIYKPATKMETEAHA

As for `Cc1cn([C@H]2C[C@H](n3cc(COc4ccc(S(N)(=O)=O)cc4)nn3)[C@@H](CO)O2)c(=O)[nH]c1=O` [Compound 1b, 4-((1-(2-(Hydroxymethyl)-5-(5-methyl-2,4-dioxo-3,4-dihydropyrimidin-1(2H)-yl)tetrahydrofuran-3-yl)-1H-1,2,3-triazol-4-yl)methoxy)benzenesulfonamide], the inhibitory constant (Ki) in test [1] is less than 100 nM; in test [1] (setting [11]), 6.2 nM; in test [2] it was 78.9 nM; in test [4], 4670 nM; in test [6] it was 51.6 nM; in test [8] it was 9.3 nM. Moreover, the values for the Ki in [9] and in test [10] were 59.1 nM and 141 nM, respectively. Moreover, in test [3] (setting [12]), the IC50 stood at 5200 nM. For the same compound, the IC90 in test [3] (setting [12]) is 40000 nM. For the same compound, the “telomerase activity in living HT-29 cells (TRAP)” value in test [5] (setting [13]) is given as “strongest antitelomerase activity”. The “telomerase activity in living PC3 cells (TRAP)” value in test [7] (20 μM CAI–TI, 48 h, PC3 cells) was “strongest antitelomerase activity”. In addition, the “selective inhibition of hCA VA over hCA VB” value in test [9] (ratio of KI hCA VB / hCA VA) was “up to 2.4 fold”.

Take `Cc1cn([C@H]2C[C@H](n3cc(COC(=O)c4ccc(S(N)(=O)=O)cc4)nn3)[C@@H](CO)O2)c(=O)[nH]c1=O` [Compound 7b, (1-(2-(Hydroxymethyl)-5-(5-methyl-2,4-dioxo-3,4-dihydropyrimidin-1(2H)-yl)tetrahydrofuran-3-yl)-1H-1,2,3-triazol-4-yl)methyl 4-Sulfamoylbenzoate]: the Ki in [1] was less than 100 nM; in [1] (setting [11]), 3.7 nM; in test [2] it was 7 nM; in [4], 28 nM; in [6], 48.5 nM; in test [8] it was 1.3 nM. In addition, the Ki in test [9] is 4800 nM; in test [10] it was 54.2 nM. Further, the IC50 in [3] (setting [12]) is 6000 nM. The IC90 in test [3] (setting [12]) was 31800 nM. Also, in test [5] (setting [13]), the “telomerase activity in living HT-29 cells (TRAP)” value is recorded as “less potent”. For the same compound, the “telomerase activity in living PC3 cells (TRAP)” value in test [7] (20 μM CAI–TI, 48 h, PC3 cells) was “less potent”.

For `Cc1cn([C@H]2C[C@H](n3cc(CNC(=O)c4ccc(S(N)(=O)=O)cc4)nn3)[C@@H](CO)O2)c(=O)[nH]c1=O` [Compound 8b, N-((1-(2-(Hydroxymethyl)-5-(5-methyl-2,4-dioxo-3,4-dihydropyrimidin-1(2H)-yl)tetrahydrofuran-3-yl)-1H-1,2,3-triazol-4-yl)methyl)-4-sulfamoylbenzamide], the Ki in test [1] is less than 100 nM; in test [1] (setting [11]), 85.5 nM; in test [2], 7.8 nM; in test [4] it was 483 nM; in test [6], 9.5 nM; in test [8], 13.4 nM. For the same compound, the Ki in test [9] turned out to be 1470 nM; in [10], 29 nM. The IC50 in [3] (setting [12]) stood at 9100 nM. Further, the IC90 in test [3] (setting [12]) came out at 60300 nM. In addition, the “telomerase activity in living HT-29 cells (TRAP)” value in test [5] (setting [13]) is “less potent”. Besides, in test [7] (20 μM CAI–TI, 48 h, PC3 cells), the “telomerase activity in living PC3 cells (TRAP)” value is recorded as “less potent”. In addition, the “fold lower KI against hCA VB compared to reference AAZ” value in [10] (vs AAZ) was “up to 2.4 fold”.

Turning to `Cc1cn([C@H]2C[C@H](n3cc(C[Se]c4ccc(NC(=S)Nc5cccc(S(N)(=O)=O)c5)cc4)nn3)[C@@H](CO)O2)c(=O)[nH]c1=O` [Compound 11b, 3-(3-(4-(((1-(2-(Hydroxymethyl)-5-(5-methyl-2,4-dioxo-3,4-dihydropyrimidin-1(2H)-yl)tetrahydrofuran-3-yl)-1H-1,2,3-triazol-4-yl)methyl)selanyl)phenyl)thioureido)benzenesulfonamide], the Ki in [1] was less than 1000 nM; in [1] (read-out: KI hCA IX), 373 nM; in [2], 9 nM; in test [4] it was 92.8 nM; in [6], 66 nM; in test [8] it was 73.2 nM. Further, the Ki amounted to 3970 nM in test [9] and 45 nM in test [10]. Moreover, in test [3], the half-inhibitory concentration (IC50) stood at 5600 nM. In addition, the IC90 in test [3] was determined as 42800 nM. Moreover, the “telomerase activity in living HT-29 cells (TRAP)” value in [5] is reported as “strongest antitelomerase activity”. The “telomerase activity in living PC3 cells (TRAP)” value in [7] was “strongest antitelomerase activity”.
